Measured values taken from ChEMBL document CHEMBL1133804, “Naphthalene derivatives: A new series of selective cyclooxygenase-2 inhibitors” (Bioorg Med Chem Lett, 2001).
The source made the active and inactive calls. The calls are words filed in the database; no cut-off is given here.

How the values were obtained:
[1] = molecular target: T1, Prostaglandin G/H synthase 1 (Rattus norvegicus, UniProt Q63921)
T1 sequence (Q63921 whole entry): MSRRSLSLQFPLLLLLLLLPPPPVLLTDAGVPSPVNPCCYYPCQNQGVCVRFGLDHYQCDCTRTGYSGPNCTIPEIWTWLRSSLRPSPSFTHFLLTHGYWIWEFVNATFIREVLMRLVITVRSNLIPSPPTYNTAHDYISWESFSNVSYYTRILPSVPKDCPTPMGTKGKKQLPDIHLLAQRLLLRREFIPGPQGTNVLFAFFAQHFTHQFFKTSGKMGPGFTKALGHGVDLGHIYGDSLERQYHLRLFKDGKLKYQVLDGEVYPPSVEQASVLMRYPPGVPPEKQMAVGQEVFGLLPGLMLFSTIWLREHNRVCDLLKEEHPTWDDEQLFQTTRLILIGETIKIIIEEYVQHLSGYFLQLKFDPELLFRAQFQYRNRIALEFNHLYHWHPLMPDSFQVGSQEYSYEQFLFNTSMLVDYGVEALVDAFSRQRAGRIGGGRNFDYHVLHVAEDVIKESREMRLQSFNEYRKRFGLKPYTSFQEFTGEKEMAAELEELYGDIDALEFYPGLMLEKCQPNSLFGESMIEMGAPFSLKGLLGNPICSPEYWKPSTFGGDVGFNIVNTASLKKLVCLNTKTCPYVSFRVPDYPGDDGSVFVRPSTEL
Description: In vitro inhibitory concentration against rat prostaglandin G/H synthase 1

Rattus norvegicus [2] = species: Rattus norvegicus; conditions: 30 mg/kg
Description: Antiinflammatory activity in vivo by carrageenan paw edema assay in rat at a dose of 30 mg/kg; NA is not active

Rattus norvegicus [3] = species: Rattus norvegicus; experiment: Dose producing ulceration in rats; assay type: functional
Rattus norvegicus [4] = experiment: Anti-inflammatory activity in vivo by carrageenan paw edema assay in rat at a dose of 30 mg/kg; assay type: functional
Rattus norvegicus [5] = experiment: Antiinflammatory activity in vivo by carrageenan paw edema assay in rat at a dose of 3 mg/kg; assay type: functional
Rattus norvegicus [6] = experiment: Antiinflammatory activity in vivo by carrageenan paw edema assay in rat at a dose of 10 mg/kg; conditions: read-out: Inhibition
Rattus norvegicus [7] = experiment: Antiinflammatory activity in vivo by carrageenan paw edema assay in rat at a dose of 30 mg/kg; NA is inactive; assay type: functional, organism-based; parameters: dose 30 mg/kg
Rattus norvegicus [8] = experiment: Antiinflammatory activity in vivo by carrageenan paw edema assay in rat at a dose of 3 mg/kg; NA is inactive; assay type: functional, organism-based; parameters: dose 3 mg/kg
Rattus norvegicus [9] = experiment: Antiinflammatory activity in vivo by carrageenan paw edema assay in rat; NA is inactive; assay type: functional, organism-based
Rattus norvegicus [10] = experiment: Antiinflammatory activity in vivo by carrageenan paw edema assay in rat at a dose of 30 mg/kg: NA is inactive; assay type: functional, organism-based; parameters: dose 30 mg/kg

Row | SMILES | IC50 [1] | inhibition in vivo at 30 mg/kg (Rattus norvegicus [4]) | inhibition in vivo at 3 mg/kg (Rattus norvegicus [5]) | further results
1 | CC(C(=O)O)c1ccc(Cc2ccc(Cl)cc2)c2ccc(Cl)cc12 (stereo unspecified) | > 100 µM |  |  | inhibition (Rattus norvegicus [2]): inactive
2 | Cc1ccc(-c2cc(C(F)(F)F)nn2-c2ccc(S(N)(=O)=O)cc2)cc1 [CELECOXIB] |  | 40% | 41% | 
3 | COc1ccc2c(Cc3cccc(Cl)c3)ccc(C(C)C(=O)O)c2c1 (stereo unspecified) |  | 0% | 0% | 
4 | CS(=O)(=O)c1ccc(C2=C(c3ccccc3)C(=O)OC2)cc1 [ROFECOXIB] |  |  | 41% | 
5 | COc1ccc2c(Cc3ccc(Cl)cc3)c(CC(=O)O)ccc2c1 | > 100 µM |  |  | inhibition (Rattus norvegicus [2]): inactive
6 | COc1ccc2c(Cc3ccc(Cl)cc3)ccc(CC(=O)O)c2c1 | > 100 µM | 52% |  | 
7 | COc1ccc2c(c1)c(CC(=O)O)c(C)n2C(=O)c1ccc(Cl)cc1 [INDOMETHACIN] |  |  |  | inhibition in vivo at 10 mg/kg (Rattus norvegicus [6]): 100%
8 | COc1ccc2c(Cc3ccc(Cl)cc3)cccc2c1 | > 100 µM |  |  | inhibition (Rattus norvegicus [7]): inactive
9 | CCc1ccc2c(Cc3ccc(Cl)cc3)ccc(C(C)C(=O)O)c2c1 (stereo unspecified) | 61 µM |  |  | inhibition (Rattus norvegicus [9]): inactive
10 | COc1ccc2c(Cc3ccc(Cl)cc3)cc(CC(=O)O)cc2c1 | > 100 µM |  |  | inhibition (Rattus norvegicus [7]): inactive
11 | CC(C(=O)O)c1ccc(Cc2ccc(Cl)cc2)c2ccc(S(C)(=O)=O)cc12 (stereo unspecified) | > 100 µM |  |  | inhibition (Rattus norvegicus [4]): inactive

Second part, led by results:

Row | IC50 [1] | SMILES | inhibition in vivo at 30 mg/kg (Rattus norvegicus [4]) | inhibition in vivo at 3 mg/kg (Rattus norvegicus [5]) | further results
12 | 4.1 µM | COc1ccc2c(Cc3ccc(Cl)cc3)ccc(C(C)C(=O)O)c2c1 (stereo unspecified) | 50% |  | ED50 (Rattus norvegicus [3]): 40 mg/kg
13 | > 100 µM | CCOc1ccc(Cc2ccc(C(C)C(=O)O)c3cc(OC)ccc23)cc1 (stereo unspecified) | 52% | 27% | 
14 | 2.8 µM | COc1ccc2c(Cc3ccc(C)cc3)ccc(C(C)C(=O)O)c2c1 (stereo unspecified) | 49% | 30% | 
15 | 2.4 µM | CC(C(=O)O)c1ccc(Cc2ccc(F)cc2)c2ccccc12 (stereo unspecified) | 16% |  | 
16 | > 100 µM | CCc1ccc(Cc2ccc(C(C)C(=O)O)c3cc(OC)ccc23)cc1 (stereo unspecified) | 32% |  | 
17 | 218 µM | COc1ccc2c(Cc3ccc(C(C)=O)cc3)ccc(C(C)C(=O)O)c2c1 (stereo unspecified) |  |  | inhibition (Rattus norvegicus [7]): inactive; inhibition (Rattus norvegicus [8]): inactive
18 | 19.9 µM | CSc1ccc2c(Cc3ccc(Cl)cc3)ccc(C(C)C(=O)O)c2c1 (stereo unspecified) | 16% |  | 
19 | 1.7 µM | COc1ccc2c(Cc3ccc(F)cc3)ccc(C(C)C(=O)O)c2c1 (stereo unspecified) | 53% |  | 
20 | 1.5 µM | COc1ccc2c(Cc3ccccc3)ccc(C(C)C(=O)O)c2c1 (stereo unspecified) | 58% | 30% | 
21 | 40.8 µM | COc1ccc2c(Cc3ccc(C(C)(C)C)cc3)ccc(C(C)C(=O)O)c2c1 (stereo unspecified) | 32% |  | inhibition (Rattus norvegicus [8]): inactive
22 | 2.3 µM | COc1ccc2c(Cc3ccccc3Cl)ccc(C(C)C(=O)O)c2c1 (stereo unspecified) | 13% | 5% | 
23 | 8.8 µM | COc1ccc(Cc2ccc(C(C)C(=O)O)c3cc(OC)ccc23)cc1 (stereo unspecified) | 45% | 22% | 
24 | > 100 µM | COc1ccc2c(C(C)C(=O)O)ccc(Cc3ccc(F)cc3)c2c1 (stereo unspecified) |  |  | inhibition (Rattus norvegicus [7]): inactive
25 | 7.3 µM | CCC(C(=O)O)c1ccc(Cc2ccc(F)cc2)c2ccc(OC)cc12 (stereo unspecified) |  |  | inhibition (Rattus norvegicus [10]): inactive
